{"source": "paper PMC5415745", "about": "“Drug-transporter mediated interactions between anthelminthic and antiretroviral drugs across the Caco-2 cell monolayers” (BMC Pharmacology & Toxicology, 2017)", "key": {"[1]": {"conditions": "cited from earlier work"}, "[2]": {"assay": "Bidirectional (AP→BL, BL→AP) drug transport across Caco-2 cell monolayers in transwells: cumulative transport, Papp, efflux ratio; HPLC or radiolabeled assay", "conditions": "human", "protocol": "(§1) The monolayers used were of between passage 20 and 65 after 15 days of growth. Each experiment was performed in duplicate using two six well-transwell culture plates. The cells were trypsinized as described earlier, and after centrifugation the pellet re-suspended in fresh DMEM (+15%), and the cells counted using a cell counter. A volume of DMEM was added enough to give a cell count of 2 × 10^6 cells per ml, and cells were seeded on the transwell culture plates at a density of 2 × 10^4 cells/cm^2 (~ 100,000 cells per well, since insert membrane growth area = 4.67 cm^2). The plates were then incubated at 37°C and 10% CO2 in a humidified chamber and the media changed every 2-3 days, by aspirating using a suction pump and replacing with an equal volume of DMEM. Transport experiments were conducted 15 to 20 days after seeding. The TEER across the cell monolayers was monitored using a Millicell-ERS in order to assess cell monolayer integrity and the monolayers considered appropriate for the experiment when the TEER values were typically above 500 cm^2 [49, 70].\n(§2) Prior to transport studies, each monolayer was washed and equilibrated with the transport medium (DMEM without FBS). The medium was removed from all AP and BL compartments of the transwells and replaced with 2 ml of the transport medium (DMEM alone), to both compartments and equilibrated for 1 h (37°C, 10% CO2 incubator), after which the TEER was re-assessed and labeled. The medium was then removed from both compartments and replaced with an equal volume of pre-warmed medium containing the compound of interest at the appropriate concentration. For the AP → BL transport, 2 ml of medium containing the desired drug was placed in the AP chamber and 2 ml of the medium alone in the BL chamber, whereas 2 ml of medium containing the drug was placed in the BL and 2 ml of medium on the AP chamber for the BL → AP transport [71]. The effect of the second drug was then assessed by adding the medium containing the original drug and the drug under study to the AP side for AP → BL transport with the medium containing the original drug alone in the BL chamber, and vice-versa for the BL → AP transport. Transport in each direction was done in triplicate. The transwell plates were then incubated (37°C, 10% CO2 incubator), and 100μl of the samples from the AP and BL compartments were taken at 60, 120, 180 and 240 min and quantified either by HPLC method described earlier [45], or by the use of a liquid scintillating counter depending on the drug under study. The HPLC method involved liquid - liquid extraction followed by ultra-high performance liquid chromatography using a Hypurity C18 column and ultraviolet detection set at a wavelength of 215 nm. The mobile phase consisted of ammonium formate, acetonitrile and methanol (57:38:5 v/v). Separation was facilitated via isocratic elution at a flow rate of 1.5 ml/min. For HPLC assays, the concentration used for each drug was 20μg/ml. The concentrations that offered the best detection were selected for radiolabeled assay. […] The integrity of the CCM during the experiment was monitored by measuring the TEER at the beginning (0 min) and the end of the experiment (240min).\n(§3) The results were expressed as apparent permeability coefficient (Papp, unit: cms^-1), the amount of compound transported per second. Papp values were calculated for both AP to BL (PappAtoB), and BL to AP (PappBtoA) movement of the compound. Papp was calculated using the following equation [52, 72]: • Papp (cm/s) = (dQ/dt) x (1/(ACO) • dQ/dt = Steady-state flux (dpm s^-1 or μmol s^-1) • A = Surface area of the filter (cm^2) • CO = Initial concentration in the donor chamber (dpm litre ^-1 or μM)\n(§4) The quotient of secretory permeability and absorptive permeability (PappBL-AP/PappAP-BL) constitutes the efflux ratio, while the reverse (PappAP-BL/PappBL-AP) is the uptake ratio [71]."}, "[3]": {"test_system": "Caco-2 cell monolayers", "assay": "Bidirectional (AP→BL, BL→AP) drug transport across Caco-2 cell monolayers in transwells: cumulative transport, Papp, efflux ratio; HPLC or radiolabeled assay", "conditions": "for Effect on the transport of PZQ: labelled drug is the interacting drug; for Apical to basal transport (cumulative, receiver), Mean / Basal to apical transport (cumulative, receiver), Mean: mean n=3", "protocol": "as §1, §2, §3, §4"}, "[4]": {"conditions": "Caco-2, Papp AP → BL, mean (n=3) after 60 min, drug A alone, or label 'A + B' = transport of A in presence of interacting drug B, concentrations per Table 1"}, "[5]": {"conditions": "Caco-2, Papp BL → AP, mean (n=3) after 60 min, drug A alone, or label 'A + B' = transport of A in presence of interacting drug B, concentrations per Table 1"}, "[6]": {"conditions": "SQV alone (PZQ experiment), 60 min, mean"}, "[7]": {"conditions": "SQV alone (PZQ experiment), 60 min, samples 1-3"}, "[8]": {"conditions": "SQV alone (PZQ experiment), 120 min, mean"}, "[9]": {"conditions": "SQV alone (PZQ experiment), 120 min, samples 1-3"}, "[10]": {"conditions": "SQV alone (PZQ experiment), 180 min, mean"}, "[11]": {"conditions": "SQV alone (PZQ experiment), 180 min, samples 1-3"}, "[12]": {"conditions": "SQV alone (PZQ experiment), 240 min, mean"}, "[13]": {"conditions": "SQV alone (PZQ experiment), 240 min, samples 1-3"}, "[14]": {"conditions": "SQV alone (PZQ experiment), after 60min, mean"}, "[15]": {"conditions": "SQV alone, 60 min, individual experiments 1-3"}, "[16]": {"conditions": "SQV alone, 180 min, individual experiments 1-3"}, "[17]": {"conditions": "SQV alone, 240 min, individual experiments 1-3"}, "[18]": {"conditions": "SQV alone, after 60 min, samples 1-3"}, "[19]": {"conditions": "mean (n=3) after 60 min, drug A alone, or label 'A + B' = transport of A in presence of interacting drug B, concentrations per Table 1"}, "[20]": {"conditions": "120 min, individual samples 1-3"}, "[21]": {"conditions": "180 min, individual samples 1-3"}, "[22]": {"conditions": "240 min, individual samples 1-3"}, "[23]": {"conditions": "samples after 60min, individual samples 1-3"}}, "note": "Values joined by “and” are separate entries in the source; they are usually repeats but may differ in a detail not shown here. Equal entries are not always repeated."}
{"smiles": "CC(C)(C)NC(=O)[C@@H]1C[C@@H]2CCCC[C@@H]2CN1C[C@@H](O)[C@H](Cc1ccccc1)NC(=O)[C@H](CC(N)=O)NC(=O)c1ccc2ccccc2n1", "note": "[SQV, saquinavir]", "values": [{"measurement": "Log Kow", "setting": "[1]", "result": 2.5}, {"measurement": "Papp A→B at 60 min", "setting": "[2]; [4]", "result": 6.9, "unit": "×10⁻⁶ cm/s"}, {"measurement": "Papp B→A at 60 min", "setting": "[2]; [5]", "result": 21.1, "unit": "×10⁻⁶ cm/s"}, {"measurement": "Papp A→B at 60 min", "setting": "[2]; Caco-2, PappAB Papp, SQV alone, after 60 min, samples 1-3", "result": 7.01, "unit": "×10⁻⁶ cm/s"}, {"measurement": "Papp B→A at 60 min", "setting": "[2]; Caco-2, PappBA Papp, SQV alone, after 60 min, samples 1-3", "result": 25.1, "unit": "×10⁻⁶ cm/s"}, {"measurement": "Apical to basal transport Mean", "setting": "[3]; [6]", "result": 3.18, "unit": "pmol"}, {"measurement": "Basal to apical transport Mean", "setting": "[3]; [6]", "result": 6.29, "unit": "pmol"}, {"measurement": "Apical to basal transport", "setting": "[3]; [7]", "result": "3.93 pmol and 2.52 pmol and 3.10 pmol"}, {"measurement": "Basal to apical transport", "setting": "[3]; [7]", "result": "5.98 pmol and 5.60 pmol and 7.29 pmol"}, {"measurement": "Apical to basal transport Mean", "setting": "[3]; [8]", "result": 4.32, "unit": "pmol"}, {"measurement": "Basal to apical transport Mean", "setting": "[3]; [8]", "result": 11.52, "unit": "pmol"}, {"measurement": "Apical to basal transport", "setting": "[3]; [9]", "result": "4.59 pmol and 4.09 pmol and 4.29 pmol"}, {"measurement": "Basal to apical transport", "setting": "[3]; [9]", "result": "10.77 pmol and 11.26 pmol and 12.52 pmol"}, {"measurement": "Apical to basal transport Mean", "setting": "[3]; [10]", "result": 5.73, "unit": "pmol"}, {"measurement": "Basal to apical transport Mean", "setting": "[3]; [10]", "result": 16.09, "unit": "pmol"}, {"measurement": "Apical to basal transport", "setting": "[3]; [11]", "result": "5.76 pmol and 5.30 pmol and 6.14 pmol"}, {"measurement": "Basal to apical transport", "setting": "[3]; [11]", "result": "16.14 pmol and 16.78 pmol and 15.35 pmol"}, {"measurement": "Apical to basal transport Mean", "setting": "[3]; [12]", "result": 6.40, "unit": "pmol"}, {"measurement": "Basal to apical transport Mean", "setting": "[3]; [12]", "result": 20.56, "unit": "pmol"}, {"measurement": "Apical to basal transport", "setting": "[3]; [13]", "result": "6.59 pmol and 5.67 pmol and 6.93 pmol"}, {"measurement": "Basal to apical transport", "setting": "[3]; [13]", "result": "18.19 pmol and 23.27 pmol"}, {"measurement": "PappAB Mean", "setting": "[3]; [14]", "result": 6.56, "unit": "×10⁻⁶ cm/s"}, {"measurement": "PappBA Mean", "setting": "[3]; [14]", "result": 10.8, "unit": "×10⁻⁶ cm/s"}, {"measurement": "Apical to basal transport", "setting": "[3]; [15]", "result": "2.74 pmol and 2.54 pmol and 3.32 pmol"}, {"measurement": "Basal to apical transport", "setting": "[3]; [15]", "result": "8.18 pmol and 6.66 pmol and 9.42 pmol"}, {"measurement": "Apical to basal transport Mean", "setting": "[3]; SQV alone, 60 min, mean, n=3", "result": 2.87, "unit": "pmol"}, {"measurement": "Basal to apical transport Mean", "setting": "[3]; SQV alone, 60 min, mean, n=3", "result": 8.09, "unit": "pmol"}, {"measurement": "Apical to basal transport Mean", "setting": "[3]; SQV alone, 120 min, mean, n=3", "result": 5.52, "unit": "pmol"}, {"measurement": "Basal to apical transport Mean", "setting": "[3]; SQV alone, 120 min, mean, n=3", "result": 14.27, "unit": "pmol"}, {"measurement": "Apical to basal transport", "setting": "[3]; [16]", "result": "7.42 pmol and 7.24 pmol and 8.40 pmol"}, {"measurement": "Basal to apical transport", "setting": "[3]; [16]", "result": "18.6 pmol and 17.14 pmol and 18.78 pmol"}, {"measurement": "Apical to basal transport Mean", "setting": "[3]; SQV alone, 180 min, mean, n=3", "result": 7.69, "unit": "pmol"}, {"measurement": "Basal to apical transport Mean", "setting": "[3]; SQV alone, 180 min, mean, n=3", "result": 18.17, "unit": "pmol"}, {"measurement": "Apical to basal transport", "setting": "[3]; [17]", "result": "9.18 pmol and 8.8 pmol"}, {"measurement": "Basal to apical transport", "setting": "[3]; [17]", "result": "21.42 pmol and 26.66 pmol"}, {"measurement": "Apical to basal transport Mean", "setting": "[3]; SQV alone, 240 min, mean, n=3", "result": 9.74, "unit": "pmol"}, {"measurement": "Basal to apical transport Mean", "setting": "[3]; SQV alone, 240 min, mean, n=3", "result": 23.51, "unit": "pmol"}, {"measurement": "Apical to basal transport Conc. Apical", "setting": "[3]; [18]", "result": "23.25 pmol and 22.93 pmol"}, {"measurement": "Basal to apical transport Conc. Basal", "setting": "[3]; [18]", "result": "19.35 pmol and 21.54 pmol and 28.21 pmol"}, {"measurement": "PappAB Papp", "setting": "[3]; [18]", "result": "6.59 ×10⁻⁶ cm/s and 7.13 ×10⁻⁶ cm/s"}, {"measurement": "PappBA Papp", "setting": "[3]; [18]", "result": "18.4 ×10⁻⁶ cm/s and 19.9 ×10⁻⁶ cm/s"}, {"measurement": "Effect on the transport of PZQ", "setting": "[3]", "result": "did not affect"}, {"measurement": "Papp AP → BL", "setting": "[3]; [19]", "result": 6.6, "unit": "×10⁻⁶ cm/s"}]}
{"smiles": "O=C1Nc2ccc(Cl)cc2[C@@](C#CC2CC2)(C(F)(F)F)O1", "note": "[EFV, efavirenz]", "values": [{"measurement": "Papp A→B at 60 min", "setting": "[2]; [4]", "result": 16.5, "unit": "×10⁻⁶ cm/s"}, {"measurement": "Papp B→A at 60 min", "setting": "[2]; [5]", "result": 10.8, "unit": "×10⁻⁶ cm/s"}, {"measurement": "Papp A→B at 60 min", "setting": "[2]; Caco-2, PappAB, Papp, samples after 60min, individual samples 1-3", "result": 20, "unit": "×10⁻⁶ cm/s"}, {"measurement": "Papp B→A at 60 min", "setting": "[2]; Caco-2, PappBA, Papp, samples after 60min, individual samples 1-3", "result": 13.4, "unit": "×10⁻⁶ cm/s"}, {"measurement": "Apical to basal transport (cumulative, receiver)", "setting": "[3]; 60 min, individual samples 1-3", "result": "0.31 pmoles (2×) and 0.32 pmoles"}, {"measurement": "Basal to apical transport (cumulative, receiver)", "setting": "[3]; 60 min, individual samples 1-3", "result": "0.30 pmoles (2×) and 0.25 pmoles"}, {"measurement": "Apical to basal transport (cumulative, receiver), Mean", "setting": "[3]; 60 min", "result": 0.32, "unit": "pmol"}, {"measurement": "Basal to apical transport (cumulative, receiver), Mean", "setting": "[3]; 60 min", "result": 0.28, "unit": "pmol"}, {"measurement": "Apical to basal transport (cumulative, receiver)", "setting": "[3]; [20]", "result": "0.61 pmol and 0.54 pmol and 0.55 pmol"}, {"measurement": "Basal to apical transport (cumulative, receiver)", "setting": "[3]; [20]", "result": "0.53 pmol and 0.50 pmol and 0.57 pmol"}, {"measurement": "Apical to basal transport (cumulative, receiver), Mean", "setting": "[3]; 120 min", "result": 0.56, "unit": "pmol"}, {"measurement": "Basal to apical transport (cumulative, receiver), Mean", "setting": "[3]; 120 min", "result": 0.53, "unit": "pmol"}, {"measurement": "Apical to basal transport (cumulative, receiver)", "setting": "[3]; [21]", "result": "0.67 pmol and 0.70 pmol and 0.71 pmol"}, {"measurement": "Basal to apical transport (cumulative, receiver)", "setting": "[3]; [21]", "result": "0.69 pmol and 0.65 pmol and 0.70 pmol"}, {"measurement": "Apical to basal transport (cumulative, receiver), Mean", "setting": "[3]; 180 min", "result": 0.69, "unit": "pmol"}, {"measurement": "Basal to apical transport (cumulative, receiver), Mean", "setting": "[3]; 180 min", "result": 0.68, "unit": "pmol"}, {"measurement": "Apical to basal transport (cumulative, receiver)", "setting": "[3]; [22]", "result": "0.78 pmol and 0.86 pmol and 0.82 pmol"}, {"measurement": "Basal to apical transport (cumulative, receiver)", "setting": "[3]; [22]", "result": "0.86 pmol and 0.78 pmol and 0.84 pmol"}, {"measurement": "Apical to basal transport (cumulative, receiver), Mean", "setting": "[3]; 240 min", "result": 0.82, "unit": "pmol"}, {"measurement": "Basal to apical transport (cumulative, receiver), Mean", "setting": "[3]; 240 min", "result": 0.83, "unit": "pmol"}, {"measurement": "Effect on the transport of PZQ", "setting": "[3]", "result": "did not affect"}, {"measurement": "Papp AP → BL", "setting": "[3]; [19]", "result": 16.5, "unit": "×10⁻⁶ cm/s"}, {"measurement": "Papp BL → AP", "setting": "[3]; [19]", "result": 10.8, "unit": "×10⁻⁶ cm/s"}, {"measurement": "PappAB Papp", "setting": "[3]; [23]", "result": "15.9 ×10⁻⁶ cm/s and 13.5 ×10⁻⁶ cm/s"}, {"measurement": "PappBA Papp", "setting": "[3]; [23]", "result": "9.29 ×10⁻⁶ cm/s and 9.67 ×10⁻⁶ cm/s"}]}
